ChEMBL document CHEMBL3751668, “A Pyrazolo[3,4-d]pyrimidin-4-amine Derivative Containing an Isoxazole Moiety Is a Selective and Potent Inhibitor of RET Gatekeeper Mutants” (J Med Chem, 2016)

Columns and labels:
[1] = Cytotoxicity against mouse BAF3 cells after 48 hrs by MTT assay; type: cell-based
[2] = Cytotoxicity against human Nthy-ori 3-1 cells after 10 days by MTT assay; type: cell-based
[3] = molecular target: T1, Proto-oncogene tyrosine-protein kinase receptor Ret (Homo sapiens, UniProt P07949); assay: Inhibition of human wild type RET by radiometric assay in presence of [gamma-33P]-ATP
[4] = tested on: Proto-oncogene tyrosine-protein kinase receptor Ret (Homo sapiens), P07949 [V804M]; settings: BaF3
Sequence of Proto-oncogene tyrosine-protein kinase receptor Ret (Homo sapiens), P07949 [V804M] (P07949 whole entry V804M): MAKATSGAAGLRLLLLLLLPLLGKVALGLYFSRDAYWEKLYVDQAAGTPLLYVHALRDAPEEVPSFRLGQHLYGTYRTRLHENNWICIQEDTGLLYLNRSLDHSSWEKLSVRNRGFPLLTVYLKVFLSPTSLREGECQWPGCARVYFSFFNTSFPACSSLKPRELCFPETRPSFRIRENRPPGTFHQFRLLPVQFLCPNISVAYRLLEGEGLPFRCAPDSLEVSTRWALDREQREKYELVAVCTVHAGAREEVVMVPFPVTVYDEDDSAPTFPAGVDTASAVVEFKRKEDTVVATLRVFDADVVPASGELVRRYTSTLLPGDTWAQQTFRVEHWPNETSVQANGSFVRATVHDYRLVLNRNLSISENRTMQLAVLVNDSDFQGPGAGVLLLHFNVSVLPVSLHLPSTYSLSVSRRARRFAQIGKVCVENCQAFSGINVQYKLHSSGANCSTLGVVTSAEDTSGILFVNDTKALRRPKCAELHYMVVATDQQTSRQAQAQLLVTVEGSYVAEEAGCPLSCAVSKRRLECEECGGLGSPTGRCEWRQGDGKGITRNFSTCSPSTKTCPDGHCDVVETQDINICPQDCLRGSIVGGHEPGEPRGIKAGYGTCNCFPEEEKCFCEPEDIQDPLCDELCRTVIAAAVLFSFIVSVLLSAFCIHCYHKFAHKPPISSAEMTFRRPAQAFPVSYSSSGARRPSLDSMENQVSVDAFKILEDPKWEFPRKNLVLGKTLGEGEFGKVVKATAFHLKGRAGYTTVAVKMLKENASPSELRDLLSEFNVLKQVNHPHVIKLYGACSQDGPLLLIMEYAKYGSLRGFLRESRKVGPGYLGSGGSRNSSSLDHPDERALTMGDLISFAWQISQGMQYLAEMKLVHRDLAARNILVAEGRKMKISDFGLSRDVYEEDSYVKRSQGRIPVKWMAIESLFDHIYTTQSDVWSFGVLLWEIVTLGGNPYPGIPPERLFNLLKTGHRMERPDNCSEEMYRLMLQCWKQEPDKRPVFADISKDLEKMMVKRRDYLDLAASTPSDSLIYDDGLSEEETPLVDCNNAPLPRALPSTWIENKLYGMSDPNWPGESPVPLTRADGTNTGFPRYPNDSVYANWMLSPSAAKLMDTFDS

[5] = molecular target: T1, Proto-oncogene tyrosine-protein kinase receptor Ret; settings: BaF3
Description: Inhibition of wild type TEL-fused RET (unknown origin) expressed in mouse BA/F3 cells assessed as cell growth inhibition after 48 hrs by MTT assay

[6] = tested on: Proto-oncogene tyrosine-protein kinase receptor Ret (Homo sapiens), P07949 [C634W]; settings: TT
Description: Inhibition of RET C634W mutant in human TT cells assessed as cell growth inhibition after 10 days by MTT assay

[7] = molecular target: Proto-oncogene tyrosine-protein kinase receptor Ret (Homo sapiens, UniProt P07949, V804M); assay: Inhibition of human Ret V804M mutant by radiometric assay in presence of [gamma-33P]-ATP
Sequence of Proto-oncogene tyrosine-protein kinase receptor Ret (Homo sapiens, UniProt P07949, V804M) (P07949 29-1114 V804M limits assumed): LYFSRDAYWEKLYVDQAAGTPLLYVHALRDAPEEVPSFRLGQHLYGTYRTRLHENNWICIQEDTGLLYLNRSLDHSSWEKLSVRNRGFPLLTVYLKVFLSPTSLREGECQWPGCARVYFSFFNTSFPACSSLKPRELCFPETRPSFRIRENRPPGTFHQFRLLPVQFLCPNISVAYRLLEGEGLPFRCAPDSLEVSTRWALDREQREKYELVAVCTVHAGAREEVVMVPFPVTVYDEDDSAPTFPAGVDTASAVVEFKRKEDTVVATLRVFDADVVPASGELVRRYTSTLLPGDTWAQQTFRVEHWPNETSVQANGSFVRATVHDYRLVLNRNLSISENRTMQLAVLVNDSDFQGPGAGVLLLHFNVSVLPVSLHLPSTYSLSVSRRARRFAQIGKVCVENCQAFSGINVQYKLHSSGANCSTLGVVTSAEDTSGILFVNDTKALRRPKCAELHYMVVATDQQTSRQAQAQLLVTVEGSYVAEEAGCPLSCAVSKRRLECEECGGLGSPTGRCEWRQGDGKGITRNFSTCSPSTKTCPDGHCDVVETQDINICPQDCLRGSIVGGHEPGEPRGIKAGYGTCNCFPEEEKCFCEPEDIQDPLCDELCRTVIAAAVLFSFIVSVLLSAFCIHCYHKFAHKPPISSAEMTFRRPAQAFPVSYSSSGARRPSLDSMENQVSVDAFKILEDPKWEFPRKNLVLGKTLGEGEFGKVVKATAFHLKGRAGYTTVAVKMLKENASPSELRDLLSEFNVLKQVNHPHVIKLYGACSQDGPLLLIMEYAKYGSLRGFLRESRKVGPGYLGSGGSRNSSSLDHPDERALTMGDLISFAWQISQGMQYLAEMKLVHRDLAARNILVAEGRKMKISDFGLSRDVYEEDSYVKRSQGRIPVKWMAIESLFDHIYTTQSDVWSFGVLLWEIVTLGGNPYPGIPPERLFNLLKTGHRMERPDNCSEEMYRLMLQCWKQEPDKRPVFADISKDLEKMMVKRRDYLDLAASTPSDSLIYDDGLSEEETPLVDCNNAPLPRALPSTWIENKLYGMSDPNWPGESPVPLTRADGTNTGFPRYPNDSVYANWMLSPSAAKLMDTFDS

[8] = Cell cycle arrest in human Nthy-ori 3-1 cells assessed as accumulation at G2 phase at 10 uM after 24 hrs by […] staining-based flow cytometric analysis; settings: nthy-ori 3-1, 24 h
[9] = Induction of apoptosis in human Nthy-ori 3-1 cells at 10 uM after 48 hrs by annexinV/PI staining-based flow cytometric analysis; type: cell-based; settings: nthy-ori 3-1, 48 h
TT [10] = assay: Cytotoxicity against human TT cells assessed as suppression of anchorage-independent growth at 1 uM for 30 days by soft agar assay; type: functional
[11] = tested on: Proto-oncogene tyrosine-protein kinase receptor Ret (Homo sapiens), P07949 [V804L]; settings: BaF3
Sequence of Proto-oncogene tyrosine-protein kinase receptor Ret (Homo sapiens), P07949 [V804L] (P07949 whole entry V804L): as the sequence (P07949 whole entry V804M) above, with M804L counted along it

[12] = tested on: Proto-oncogene tyrosine-protein kinase receptor Ret (Homo sapiens), P07949 [S891A]; settings: BaF3
Sequence of Proto-oncogene tyrosine-protein kinase receptor Ret (Homo sapiens), P07949 [S891A] (P07949 whole entry S891A): as the sequence (P07949 whole entry V804M) above, with M804V, S891A counted along it

Cytochrome P450 3A4 = Cytochrome P450 3A4 (Homo sapiens, UniProt P08684); assay: Inhibition of CYP3A4 (unknown origin); type: ADME
Cytochrome P450 2D6 = Cytochrome P450 2D6 (Homo sapiens, UniProt P10635); assay: Inhibition of CYP2D6 (unknown origin); type: ADME
Sequence of Cytochrome P450 2D6 (P10635 whole entry): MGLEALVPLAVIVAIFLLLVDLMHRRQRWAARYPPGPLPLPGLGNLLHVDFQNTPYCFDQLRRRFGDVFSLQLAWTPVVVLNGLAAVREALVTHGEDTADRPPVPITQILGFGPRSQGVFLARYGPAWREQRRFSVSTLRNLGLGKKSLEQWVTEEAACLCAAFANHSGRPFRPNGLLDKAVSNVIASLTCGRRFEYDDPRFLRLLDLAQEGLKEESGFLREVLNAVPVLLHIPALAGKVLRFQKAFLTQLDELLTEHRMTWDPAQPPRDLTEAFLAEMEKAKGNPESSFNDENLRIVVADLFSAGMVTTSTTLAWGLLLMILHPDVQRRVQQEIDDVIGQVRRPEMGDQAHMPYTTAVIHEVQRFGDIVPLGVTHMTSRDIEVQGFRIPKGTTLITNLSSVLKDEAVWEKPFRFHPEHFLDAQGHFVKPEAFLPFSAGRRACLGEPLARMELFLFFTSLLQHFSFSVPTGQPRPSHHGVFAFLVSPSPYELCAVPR

Cytochrome P450 2C9 = Cytochrome P450 2C9 (Homo sapiens, UniProt P11712); assay: Inhibition of CYP2C9 (unknown origin); type: ADME
Cytochrome P450 2C19 = Cytochrome P450 2C19 (Homo sapiens, UniProt P33261); assay: Inhibition of CYP2C19 (unknown origin); type: ADME
[13] = Half life in human liver microsomes; type: ADME
Cytochrome P450 1A2 = Cytochrome P450 1A2 (Homo sapiens, UniProt P05177); assay: Inhibition of CYP1A2 (unknown origin); type: ADME
[14] = molecular target: Ribosomal protein S6 kinase beta-1 (Homo sapiens, UniProt P23443); assay: Inhibition of recombinant human p70S6K by radiometric assay in presence of [gamma-33P]-ATP
[15] = molecular target: Vascular endothelial growth factor receptor 3 (Homo sapiens, UniProt P35916); assay: Inhibition of recombinant human FLT4 by radiometric assay in presence of [gamma-33P]-ATP
[16] = molecular target: Ribosomal protein S6 kinase alpha-1 (Homo sapiens, UniProt Q15418); assay: Inhibition of recombinant human RSK1 by radiometric assay in presence of [gamma-33P]-ATP
[17] = molecular target: Voltage-gated inwardly rectifying potassium channel KCNH2 (Homo sapiens, UniProt Q12809); assay: Inhibition of human ERG assessed as prolongation of QT-interval at 100 uM by patch-clamp assay
[18] = molecular target: Proto-oncogene tyrosine-protein kinase receptor Ret (Homo sapiens, UniProt P07949, G691S); assay: Inhibition of human Ret G691S mutant by radiometric assay in presence of [gamma-33P]-ATP
[19] = molecular target: Proto-oncogene tyrosine-protein kinase receptor Ret (Homo sapiens, UniProt P07949, Y791F); assay: Inhibition of human Ret Y791F mutant by radiometric assay in presence of [gamma-33P]-ATP
[20] = molecular target: Proto-oncogene tyrosine-protein kinase receptor Ret (Homo sapiens, UniProt P07949, V804L); assay: Inhibition of human Ret V804L mutant by radiometric assay in presence of [gamma-33P]-ATP
[21] = molecular target: Proto-oncogene tyrosine-protein kinase receptor Ret (Homo sapiens, UniProt P07949, S891A); assay: Inhibition of human Ret S891A mutant by radiometric assay in presence of [gamma-33P]-ATP
[22] = molecular target: Proto-oncogene tyrosine-protein kinase receptor Ret (Homo sapiens, UniProt P07949, M918T); assay: Inhibition of human Ret M918T mutant by radiometric assay in presence of [gamma-33P]-ATP
[23] = Inhibition of recombinant human PKA by radiometric assay in presence of [gamma-33P]-ATP
[24] = molecular target: Dual specificity mitogen-activated protein kinase kinase 2 (Homo sapiens, UniProt P36507); assay: Inhibition of recombinant human MEK2 by radiometric assay in presence of [gamma-33P]-ATP
[25] = molecular target: Tyrosine-protein kinase Fgr (Homo sapiens, UniProt P09769); assay: Inhibition of recombinant human FGR by radiometric assay in presence of [gamma-33P]-ATP
[26] = molecular target: T2, Vascular endothelial growth factor receptor 2 (Homo sapiens, UniProt P35968); assay: Inhibition of recombinant human VGFR2 by radiometric assay in presence of [gamma-33P]-ATP
[27] = molecular target: Dual specificity mitogen-activated protein kinase kinase 1 (Homo sapiens, UniProt Q02750); assay: Inhibition of recombinant human MEK1 by radiometric assay in presence of [gamma-33P]-ATP
[28] = molecular target: Tyrosine-protein kinase HCK (Homo sapiens, UniProt P08631); assay: Inhibition of recombinant human HCK by radiometric assay in presence of [gamma-33P]-ATP
TT [29] = assay: Cytotoxicity against human TT cells assessed as suppression of anchorage-independent growth at 0.3 to 1 uM for 30 days by soft agar assay; type: functional
[30] = Ratio of GI50 for human Nthy-ori-3-1 cells to GI50 for RET C634W mutant-mediated human TT cell growth inhibition
[31] = molecular target: T2, Vascular endothelial growth factor receptor 2; assay: Inhibition of TEL-fused VEGFR2 (unknown origin) expressed in mouse BA/F3 cells assessed as cell growth inhibition; type: cell-based; settings: baf3
[32] = Induction of apoptosis in human Nthy-ori 3-1 cells at 1 to 10 uM after 48 hrs by annexinV/PI staining-based flow cytometric analysis; type: cell-based; settings: nthy-ori 3-1, 48 h
[33] = Cell cycle arrest in human Nthy-ori 3-1 cells at 1 to 10 uM after 24 hrs by […] staining-based flow cytometric analysis; settings: nthy-ori 3-1, 24 h

CC(C)n1nc(-c2cc(C3CCCCC3)on2)c2c(N)ncnc21
GI50 at 48 h [1]: > 10000 nM | GI50 at 240 h [2]: 4110 nM | IC50 [3]: 910 nM | GI50 [4]: 4730 nM | GI50 [5]: 9500 nM | GI50 [6]: > 10000 nM

Nc1ncnc2c1c(-c1cc(C3CC3)on1)nn2Cc1ccccc1
GI50 at 48 h [1]: > 10000 nM | GI50 at 240 h [2]: 39600 nM | IC50 [3]: 74 nM | IC50 [7]: 557 nM | GI50 [4]: > 10000 nM | GI50 [5]: > 10000 nM | GI50 [6]: > 10000 nM

Nc1ncnc2c1c(-c1cc(C3CC3)on1)nn2C1CCCCC1
GI50 at 48 h [1]: > 10000 nM | GI50 at 240 h [2]: 32500 nM | IC50 [3]: 2 nM | IC50 [7]: 14 nM | GI50 [4]: 2000 nM | GI50 [5]: 520 nM | GI50 [6]: 290 nM

CC(C)n1nc(-c2cc(Cc3ccccc3)on2)c2c(N)ncnc21
GI50 at 48 h [1]: > 10000 nM | GI50 at 240 h [2]: 21500 nM | IC50 [3]: 241 nM | IC50 [7]: 1990 nM | GI50 [4]: > 10000 nM | GI50 [5]: > 10000 nM | GI50 [6]: > 10000 nM

COc1cc2nccc(Oc3ccc(NC(=O)C4(C(=O)Nc5ccc(F)cc5)CC4)cc3)c2cc1OC [CABOZANTINIB]
GI50 at 240 h [2]: 4930 nM | Activity [8]: Toxic | Activity [9]: Non-toxic | Activity (TT [10]): <3 CFU | GI50 [4]: 890 nM | GI50 [5]: 50 nM | GI50 [6]: 120 nM | GI50 [11]: 910 nM | GI50 [12]: 10 nM

CC(C)n1nc(/C=N/OCc2ccccc2)c2c(N)ncnc21
GI50 at 48 h [1]: > 10000 nM | GI50 at 240 h [2]: 9850 nM | IC50 [3]: 8330 nM | GI50 [4]: > 10000 nM | GI50 [5]: 7410 nM | GI50 [6]: 9270 nM

CC(C)n1nc(-c2cc(C3CC3)on2)c2c(N)ncnc21
IC50 (Cytochrome P450 3A4): > 30000 nM | IC50 (Cytochrome P450 2D6): > 30000 nM | IC50 (Cytochrome P450 2C9): > 30000 nM | IC50 (Cytochrome P450 2C19): > 30000 nM | half-life [13]: 13 min | GI50 at 48 h [1]: > 10000 nM | IC50 (Cytochrome P450 1A2): 2000 nM | GI50 at 240 h [2]: 13700 nM | IC50 [14]: 23 nM | IC50 [15]: 72 nM | IC50 [16]: 311 nM | IC50 [3]: 1.4 nM | IC50 [7]: 4 nM | inhibition (INH) [17]: Not Active | IC50 [18]: 10 nM | IC50 [19]: 3 nM | IC50 [20]: 21 nM | IC50 [21]: 2 nM | IC50 [22]: 6 nM | IC50 [23]: 39 nM | IC50 [24]: 82 nM | IC50 [25]: 65 nM | IC50 [26]: 96 nM | IC50 [27]: 142 nM | IC50 [28]: 137 nM | Activity [8]: Non-toxic | Activity [9]: Non-toxic | Activity (TT [29]): 150 CFU | RatioGI50 [30]: 50 | GI50 [31]: 3000 nM | GI50 [4]: 320 nM | GI50 [5]: 80 nM | GI50 [6]: 240 nM | GI50 [11]: 500 nM | GI50 [12]: 90 nM

CC(C)n1nc(-c2cc(C(C)(C)C)on2)c2c(N)ncnc21
GI50 at 48 h [1]: > 10000 nM | GI50 at 240 h [2]: 24700 nM | IC50 [3]: 210 nM | IC50 [7]: 2100 nM | GI50 [4]: 7310 nM | GI50 [5]: 6120 nM | GI50 [6]: > 10000 nM

CC(C)n1nc(C#Cc2ccccc2)c2c(N)ncnc21
GI50 at 48 h [1]: 16100 nM | GI50 at 240 h [2]: 3580 nM | IC50 [7]: 2650 nM | IC50 [18]: 75 nM | IC50 [19]: 14 nM | IC50 [20]: 3130 nM | IC50 [21]: 54 nM | IC50 [22]: 57 nM | Activity [32]: Non-toxic | Activity [33]: Non-toxic | Activity (TT [29]): 150 CFU | GI50 [4]: 2600 nM | GI50 [5]: 610 nM | GI50 [6]: 2540 nM | GI50 [11]: 5430 nM | GI50 [12]: 350 nM

CC(C)n1nc(-c2cc(-c3ccccc3)on2)c2c(N)ncnc21
GI50 at 48 h [1]: > 10000 nM | GI50 at 240 h [2]: 5720 nM | IC50 [3]: 190 nM | GI50 [4]: 4970 nM | GI50 [5]: 3460 nM | GI50 [6]: > 10000 nM

CCCCCCCn1nc(-c2cc(C3CC3)on2)c2c(N)ncnc21
GI50 at 48 h [1]: > 10000 nM | GI50 at 240 h [2]: 31600 nM | IC50 [3]: 96 nM | IC50 [7]: 927 nM | GI50 [4]: > 10000 nM | GI50 [5]: > 10000 nM | GI50 [6]: > 10000 nM

CC(C)(O)Cn1nc(-c2cc(C3CC3)on2)c2c(N)ncnc21
GI50 at 48 h [1]: > 10000 nM | GI50 at 240 h [2]: 2820 nM | IC50 [3]: 68 nM | IC50 [7]: 217 nM | GI50 [4]: 6750 nM | GI50 [5]: 1770 nM | GI50 [6]: 4250 nM
